Source: patent US6248309A, “Gums containing antimicrobial agents” (priority 1999, dated 2001)
“And” between values parts separate entries of the source, which are not always exact repeats. Equal entries are not always repeated. Where two headings read alike, the source gives them in different places.

Assays:
[1] = tested on: Actinomyces viscosus (AV); test: MIC of agents alone, in pairs and in three-agent combination (Example 2); assay type: cell-based, Actinomyces viscosus ATCC 19246; conditions: agent used alone; for MIC: Actinomyces viscosus
Text: (§1) In addition, the example describes how the MIC of antimicrobial agents in the combinations are reduced compared to the MIC of those antimicrobial agents alone and the MIC of those agents in various pairings. Numerous combinations of the antimicrobial agents described herein were combined to form combinations comprising three antimicrobial agents or triplets. Each of the formed triplets included either cedarwood oil or berberine hydrochloride.
(§2) The protocol used was a variation of the procedure described above in Example 1. The assay was carried out in the two-dimensional array of a 96-well plate. In order to evaluate three agents, two of the agents were paired against the third agent. For example, varying concentrations of antimicrobial agent A plus antimicrobial agent B versus varying concentrations of antimicrobial agent C were evaluated on one 96-well plate. The procedure was repeated with the other two possible pairings, i.e., A+C with B, and B+C with A. Accordingly, each triplet required three assays in order to assess each of the three possible pairings.
(§3) The bacterial innoculum was prepared as described in Example 1.
(§4) A sterile polystyrene 96-well plate was used to dilute the antimicrobial agents A, B and C. Using aseptic technique, 100 microliters of distilled water was placed in each test well. The dilution scheme was separated into two parts. First, the dilution of the combined agents A and B and then second, the dilution of agent C. A dilution of agents A and B was accomplished by placing 50 microliters of stock solution for agent A in the first well of each column. Next, 50 microliters of stock solution for agent B was added to each of the first wells of each column. Accordingly, the first well of each column included 50 microliters of stock solution for agent A and 50 microliters of stock solution for agent B. 100 microliters from the first row in each column was then transferred to the next well in the column and so on down the column. Each transfer was a one-half dilution of the preceding concentration.
(§5) The dilution of antimicrobial agent C was accomplished by adding 100 microliters of agent C stock solution to the first well of each row. 100 microliters from the first well in each row was then transferred to the next well and so on across the row of test wells. Each transfer was a one-half dilution of the preceding concentration. FIG. 1 is a schematic illustration of the concentrations of antimicrobial agents A, B and C derived from the dilution scheme described above. […] The concentration of agent C decreases across a row from left to right. […]
(§6) The 96-well plate was then incubated under conditions that varied by microorganism. […] The plate was then read for microbial growth with a spectrophotometer by optical density. […]

[2] = tested on: Fusobacterium nucleatum (FN); test: as above; assay type: cell-based, Fusobacterium nucleatum ATCC 10933; conditions: for MIC: Fusobacterium nucleatum, read-out: MIC, individual agent alone
Text: as §1, §2, §3, §4, §5, §6

[3] = tested on: Porphyromonas gingivalis (PG); test: as above; assay type: cell-based, Porphyromonas gingivalis ATCC 33277; conditions: for MIC: Porphyromonas gingivalis, read-out: MIC, individual agent alone
Text: as §1, §2, §3, §4, §5, §6

[4] = tested on: Streptococcus mutans (SM); test: as above; assay type: cell-based, Streptococcus mutans ATCC 25175; conditions: agent used alone; for MIC: Streptococcus mutans
Text: as §1, §2, §3, §4, §5, §6

[5] = tested on: Streptococcus sanguis (SS); test: as above; assay type: cell-based, Streptococcus sanguis ATCC 49295; conditions: agent used alone; for MIC, individual agent alone: SS
Text: as §1, §2, §3
A sterile polystyrene 96-well plate was used to dilute the antimicrobial agents A, B and C. Using aseptic technique, 100 microliters of distilled water was placed in each test well. The dilution scheme was separated into two parts. First, the dilution of the combined agents A and B and then second, the dilution of agent C. A dilution of agents A and B was accomplished by placing 50 microliters of stock solution for agent A in the first well of each column. Next, 50 microliters of stock solution for agent B was added to each of the first wells of each column. […]
as §6

[6] = tested on: Campylobacter rectus (CR); test: as above; assay type: cell-based; conditions: read-out: MIC, individual agent alone
Text: as §1, §2, §3
A sterile polystyrene 96-well plate was used to dilute the antimicrobial agents A, B and C. […]
as §6

[7] = assay type: in vivo, human volunteers
Procedure: The saliva samples were refrigerated until analysis.
To either 2.7 grams unchewed gum sample or the remaining bolus of chewed gum, was added 3.0 millileters of internal standard (Hesperetin) in methanol, 6.0 milliliters hexane and 3.0 milliliters distilled water. Samples were homogenized using a Polytron Homogenizer model PT10/35 from Brinkmann Instruments, fitted with a PTA10TS generator for at least 30 seconds on ice, or until no lumps of non-dispersed gum were visible in the sample. Samples were then centrifuged in a Dynac Tabletop Centrifuge at top speed for ten minutes. The lower, amber, aqueous/methanol layer were then filtered through 25 millimeter, 0.45 micrometer nylon Acrodisc syringe filters from Gelman into 4 milliliter autosampler vials and tightly capped with polytetrafluorothylene lined septum in open-top screw caps. These samples were then analyzed using high pressure liquid chromatography for glabridin and/or glycyrrhizic and 18β-glycyrrhetinic acid, and were quantitated against a 4-point linear curve prepared by spiking approximately 2.7 grams unchewed samples of Wrigley Extra Sugarfree Peppermint gum with known levels of purified glabridin, glycyrrhizic acid monoammonium salt and 18β-glycyrrhetinicacid.
For the analysis of the gum bolus, both chewed and unchewed, a Polytron Homogenizer, described above was used. The gum sample was placed in a heavy wall glass tube. Internal standard ([…]) ethyl acetate ([…]) and water ([…]) were added. The sample was homogenized for approximately 30 seconds, or until no particles could be seen. The tubes were then centrifuged for 10 minutes on a clinical centrifuge at maximum speed. The supernatant was injected directly onto the gas chromatograph. The oven program was modified to allow resolution of ROF1 components from those of the peppermint flavoring. The gas chromatograph was calibrated using a three point standard curve to quantify the following components: menthol (flavor); geraniol (oil geraniol); cedrene, thujopsene (RC1); pinene, cineol, camphor, bornyl acetate (ROF1). The initial temperature was decreased from 140° C. to 100° C. The temperature gradient was changed from 10° C./minute to 4° C./minute. The split ratio was 50:1, and injection volume was 1 μL as per the method. A cleanup gradient was run every fifth sample as described previously.
A recovery study was performed in triplicate using blank Wrigley's Peppermint Gum (chewed and unchewed) spiked with stand and solution. Recovery was calculated relative to a direct standard consisting of spike solution without sample matrix.

Porphyromonas gingivalis = test: MIC of each agent used in Example 5; assay type: cell-based; conditions: read-out: MIC relative to Porphyromonas gingivalis used in Example 5
Procedure: The MIC Range was determined against a standard panel of five organisms that included Actinomyces viscosus, Fusobacterium nucleatum, Porphyromonas gingivalis, Streptococcus mutans, and Stretococcus sanguis. The starting dilution was 0.1 percent in methanol. The MIC used in this Example 5 was the MIC for each agent relative to Porphyromonas gingivalis.

[8] = for Above MIC in Saliva (Y/N): concentration in saliva at any time above MIC relative to Porphyromonas gingivalis; for Rate of release from gum: in words
Procedure: (§11) Ten volunteers chewed 2.7 grams samples of each gum formulation and provided saliva samples at intervals and the gum bolus at the end of the 25 minute chewing period. High pressure liquid chromatography and gas chromatography were used to analyze the gum bolus and saliva non-volatile and volatile components, respectively.
(§12) Saliva samples were collected from each of the individuals prior to chewing 2.7 grams of gum, and at 1.0, 2.5, 5.0, 10.0, and 25.0 minutes while chewing the gum. The saliva samples were refrigerated until analysis. The gum bolus that remained after 25 minutes was saved and extracted immediately or stored refrigerated until extraction for analysis.
(§13) Samples were Vortex-mixed in Multi-tube vortex mixer for one minute and then centrifuged at top speed in clinical centrifuge for two minutes. Supernatants were carefully transferred to 1 milliliter glass shell vials and capped. Analysis was carried out either by isocratic elution for glabridin-only samples, or gradient elution for the samples containing the glycyrrhizic and 18β-glycyrrhetinic acids using high pressure liquid chromatography. Glabridin concentrations were converted to GLY concentrations by taking the weight percent glabridin in GLY to be 2.74 percent.
(§14) The calibration curve was prepared using spiked blank saliva.
(§15) For saliva, the essential oils of menthol, cedarwood oil, geraniol and Rosmarinus officianalis were determined by capillary gas chromatography. The split ratio was 25:1. The injection volume was 2 μL. Four hundred μL of saliva was extracted from the 1 milliliter of ethyl acetate containing an internal standard (hexadecane) in 1.5 milliliter Eppendorf tubes. After centrifugation, the organic layer was injected directly into the Hewlett-Packard 6890 gas chromatograph. […] For this reason, only the samples from 0 to 10 minutes were analyzed. A cleanup gradient was run from 190 to 300° C. every fifth sample to remove less volatile interferences from the column.

clinical = conditions: human, in vivo
Procedure: as §11, §12, §13, §14, §15

[9] = tested on: Actinomyces viscosus (AV); test: MIC of agents alone and in two-agent combination (Example 1); assay type: cell-based, Actinomyces viscosus ATCC 19246; conditions: concentration of TB1 (agent A)
Procedure: (§7) The following example illustrates how the MIC of individual antimicrobial agents that are combined were determined and also illustrates how the MIC of the antimicrobial agents in combination were determined.
(§8) A microtiter plate was used to dilute the antimicrobial agents to varying concentrations in order to determine the MIC of those antimicrobial agents alone and the MIC of the agents when combined.
(§9) A bacterial culture was incubated at 37° C. Prior to the dilution of the antimicrobial agents as described below, the bacterial culture was spun down at 2,000 rpm into a pellet and resuspended in a solution of buffered phosphate. The innoculum was normalized with a spectrophotometer to an optical density at 550 nanometers of between 0.180-0.220 (equivalent to 5.0×10^7 colony forming units, CFU per milliliter). The innoculum was set aside until the completion of the antimicrobial agent dilution. […]
(§10) Following 48 hours of incubation, the incubated plate was read for microbial growth with a spectrophotometer by optical density (OD). The well containing the lowest dilution achievable for each agent with a spectrophotometer reading below 0.05 OD (i.e., no detectable microbial growth) was considered representative for the combination. The MIC for each agent in the combination was determined by accounting for the starting stock solution concentration and the resulting dilutions in the 96-well plate. […]

[10] = tested on: Fusobacterium nucleatum (FN); test: as above; assay type: cell-based, Fusobacterium nucleatum ATCC 10933; conditions: concentration of TB1 (agent A)
Procedure: as §7, §8, §9, §10

[11] = tested on: Porphyromonas gingivalis (PG); test: as above; assay type: cell-based, Porphyromonas gingivalis ATCC 33277; conditions: concentration of TB1 (agent A)
Procedure: as §7, §8, §9, §10

[12] = tested on: Streptococcus mutans (SM); test: as above; assay type: cell-based, Streptococcus mutans ATCC 25175; conditions: concentration of TB1 (agent A)
Procedure: as §7, §8, §9, §10

[13] = tested on: Streptococcus sanguis (SS); test: as above; assay type: cell-based, Streptococcus sanguis ATCC 49295; conditions: concentration of TB1 (agent A)
Procedure: as §7, §8, §9, §10

Compound: COc1ccc2cc3[n+](cc2c1OC)CCc1cc2c(cc1-3)OCO2 [BX1, 5,6-dihydro-9,10-dimethoxybenzo[g]-1,3-benzodioxolo [5,6-a] quinolizinium]
- MIC, individual agent alone ([1]; AV): 62.5 µg/mL
- MIC ([1]; read-out: MIC, individual agent alone, AV): 31.3 µg/mL
- MIC, individual agent alone ([2]; FN, agent used alone): 62.5 µg/mL
- MIC [2]: 62.5 µg/mL
- MIC, individual agent alone ([3]; PG, agent used alone): 15.6 µg/mL
- MIC [3]: 15.6 µg/mL
- MIC, individual agent alone ([4]; SM): 31.3 µg/mL and 62.5 µg/mL
- MIC ([4]; read-out: MIC, individual agent alone, SM): 31.3 µg/mL
- MIC, individual agent alone [5]: 62.5 µg/mL
- MIC ([5]; Streptococcus, read-out: MIC, individual agent alone, SS): 31.3 µg/mL
- MIC [6]: 125 µg/mL

Compound: CC(C)=CCC/C(C)=C/CO [GRA1, trans-3,7-dimethyl-2,6-octadien-1-ol]
- MIC, individual agent alone ([1]; AV): 62.5 µg/mL and 125 µg/mL
- MIC ([1]; AV, read-out: MIC, individual agent alone): 125 µg/mL
- MIC, individual agent alone ([2]; FN, agent used alone): 62.5 µg/mL and 125 µg/mL
- MIC ([2]; FN, agent used alone): 62.5 µg/mL
- MIC, individual agent alone ([3]; PG, agent used alone): 62.5 µg/mL
- MIC ([3]; PG, agent used alone): 62.5 µg/mL
- MIC, individual agent alone ([4]; SM): 125 µg/mL
- MIC ([4]; SM, read-out: MIC, individual agent alone): 125 µg/mL
- MIC, individual agent alone [5]: 125 µg/mL and 62.5 µg/mL and 250 µg/mL
- MIC ([6]; CR, agent used alone): 250 µg/mL
- Release from Chewed Gum Bolus after 25 min ([7]; in vivo): 34%
- MIC (Porphyromonas gingivalis; starting dilution 0.1 percent in methanol, MIC defined in micrograms per milliliter): 7.8 µg/mL
- Above MIC in Saliva (Y/N) [8]: No
- Time maintaining a presence in the oral cavity ([8]; human, in vivo): about 25 minutes
- Rate of release from gum ([8]; listed as GRA): released more slowly and over a longer period of time
- Rate of release from gum ([8]; listed as geraniol): released from a gum base less quickly and over a longer period of time
- concentration at 1 min (clinical): 6000 ng/mL
- concentration at 2.5 min (clinical): 6000 ng/mL
- concentration at 5 min (clinical): 7000 ng/mL
- concentration at 10 min (clinical): 5000 ng/mL

Compound: CC1CCC(C(C)C)C(O)C1 (centres unmarked) [Menthol]
- Release from Chewed Gum Bolus after 25 min ([7]; 2.7 g peppermint gum chewed 25 min, ten volunteers): 50%
- MIC (Porphyromonas gingivalis): 125 µg/mL
- Concentration of Antimicrobial Agent in Saliva ([8]; 25 minutes, GLY formulations 1,3-6, RC1 5,6, GRA 4-6, GA, GR #6, menthol 1-6): below detection limits
- Above MIC in Saliva (Y/N) [8]: No
- concentration at 1 min (clinical): 25000 ng/mL
- concentration at 2.5 min (clinical): 22000 ng/mL
- concentration at 5 min (clinical): 24000 ng/mL
- concentration at 10 min (clinical): 24000 ng/mL

Compound: N-cocamidopropyl-dimethylglycine [TB1]
- MIC of Cocamidopropyl Dimethylglycine alone and when combined with Agent B [9]: 28.9 µg/mL
- MIC of Cocamidopropyl Dimethylglycine alone and when combined with Agent B [10]: 45.4 µg/mL
- MIC of Cocamidopropyl Dimethylglycine alone and when combined with Agent B [11]: 16.8 µg/mL
- MIC of Cocamidopropyl Dimethylglycine alone and when combined with Agent B [12]: 22.8 µg/mL
- MIC of Cocamidopropyl Dimethylglycine alone and when combined with Agent B [13]: 30.2 µg/mL
